# Patent US7101915B1, “P-terphenyl compounds” (Shionogi & Co., Ltd., priority 1996, dated 2006)
# Marks after values point to notes of the source that are not given here.
# Columns and labels:
# [1] = system: anti-OVA IgE antibody titer (PCA titer); test: Suppressive effect on the IgE production against ovalbumin (OVA), PCA titer; type: in vivo, BALB/c mice; conditions: untreated group 9-12
# Method: Experiment 4 Suppressive Effect on the IgE Production Against Ovalbumin (OVA)
# BALB/c mice (female, 8-10 weeks old) and Wistar rats (female, 8-10 weeks old) which were bought from Japan SLC, Inc. (Shizuoka) were used.
# BALB/c mice were immunized by an intraperitoneal administration of 0.2 ml suspension of 2 μg of ovalbumin (OVA) and 2 mg of aluminium hydroxide gel in physiological saline. After 10 days, blood was drawn from hearts, sera were separated and stocked at −40° C. till the measurement of an IgE antibody titer.
# After the compound of the present invention was dissolved or suspended in N, N-dimethylacetoamide, the mixture was diluted 20 times with miglyol 812 neutral oil. The obtained solution was orally administered to mice at 0.1 ml per mouse. The administration was continued for 10 days from the immunizing day to the day before drawing blood. IPD-1151-T (a compound described in Jpn. Pharmacol. (1993) 61, 31–39) and a compound No. 36 (a compound 36 described in J. Med. Chem. (1997) 40: 395–407) were examined as controls by the same method.
# 4) Measurement of Anti-OVA IgE Antibody Titer (PCA Titer)
# The samples 2-fold diluted with physiological saline were prepared from the obtained mouse serum and each 50 μl of the solution was intradermally injected to backs of Wistar rats which previously hair cut. After 24 hours, a passive cutaneous anaphylaxis reaction (PCA) was induced by an intravenous injection of 0.5 ml of physiological saline containing 1 mg of OVA and 5 mg of Evans' blue dye. After 30 minutes, the rats were sacrified and the highest dilution rate of the serum giving bluing with a diameter of more than 5 mm was recorded as the PCA titer. For example, when a serum is positive for the PCA reaction till […], the anti-OVA IgE antibody titer of the mouse is defined as 7.
# [2] = system: mouse thymoma strain EL4 cells; test: Anti-proliferative activity on EL4 cells (MTT); type: cell-based; conditions: 3 days
# Method: Experiment 2 Anti-Proliferative Activity on EL4 Cells
# In 96-well microtiter plate 4×10^4/0.1 ml of mouse thymoma strain EL4 cells were added and 0.1 ml of the compound of the present invention was added to the mixture so that the concentration was in the range of 0-5,000 ng/ml. After the cultivation for 3 days, the IC50 was calculated by the MTT method as described in Experiment 1.
# [3] = system: C3H/HeN mouse splenocytes stimulated with lipopolysaccharide (LPS); test: Suppressive effect on mitogenic activity of mouse splenocytes in vitro, LPS as mitogen (MTT); type: cell-based; conditions: LPS 10 μg/ml as mitogen, 3 days
# Method: (§1) Experiment 1 Suppressive Effect on a Mitogenic Activity of Mouse Splenocytes In Vitro
# (§2) In 96-well microtiter plate 5×10^5 C3H/HeN mouse splenocytes suspended in 0.1 ml of 10% fetal bovine serum-fortified RPMI 1640 medium containing 2 mM of sodium bicarbonate, 50 units/ml of penicillin, 50 μg/ml of streptomycin and 5×10^−5 M of 2-mercaptoethanol were added. Then, 5 μg/ml of Concanavalin A (Con A) or 10 μg/ml of lipopolysaccharide (LPS) as a mitogen and the compound of a pre-determined concentration of the present invention were added to each well so that a final volume of each well reached 0.2 ml. Each compound of the present invention was dissolved in dimethylsulfoxide (DMSO) and diluted with the above RPMI 1640 medium to adjust the final concentration of 100 ng/ml or less. The splenocytes in the 96-well microtiter plate were cultivated at 37° C. for 3 days in an incubator keeping the humidity 100%, carbon dioxide 5% and air 95%. Then, 25 μl of 6 mg/ml MTT [3-(4,5-dimethylthiazol-2-yl)-2,5-diphenyltetrazolium bromide] (Sigma) was added to the each well and cultivated at 37° C. for 4 hours under the same conditions. After the cultivation, 50 μl of 0.02 N hydrochloric acid in 20% sodium dodecyl sulfate (SDS) was added to formazan generated and left at 37° C. for 24 hours for dissolving formazan. An absorption intensity (OD) of formazan generated in proportion to the number of living cells was measured with an immunoreader (InterMed) equipped with a 570 nm filter (The Journal of Immunological Method, 65, 55-63, 1983). The 50% inhibitory concentration of a cell proliferation (IC 50) was calculated from a correlation between the concentration of the compound of the present invention and the absorption intensity.
# [4] = system: C3H/HeN mouse splenocytes stimulated with Concanavalin A (Con A); test: Suppressive effect on mitogenic activity of mouse splenocytes in vitro, Con A as mitogen (MTT); type: cell-based; conditions: Con A 5 μg/ml as mitogen, 3 days
# Method: as §1, §2
# [5] = system: IL-4 production of mouse T cell strain EL-4 (TPA); test: Suppressive effect on the cytokine production of mouse T cell strain EL-4: IL-4; type: cell-based; conditions: EL-4, TPA 10 ng/ml, 24 hours, ELISA
# Method: (§3) Experiment 8 Suppressive Effect on the Cytokine Production of a Mouse T Cell Strain EL-4 In 48-well plate were added 2×10^5 mouse T cell strain EL-4 which were suspended in 0.2 ml of 1% fetal bovine serum-added RPMI 1640 medium (2 mM of sodium bicarbonate, 50 units/ml of penicillin, 50 μg/ml of streptomycin and 5×10^−5 M of 2-mercaptoethanol were added) and the compound of the present invention of a predetermined concentration. TPA was added as a cell stimulater at a final concentration of 10 ng/ml to adjust a final volume of each well to 0.4 ml. Each compound of the present invention was dissolved in DMSO and diluted with the above RPMI 1640 medium, and then for added at a final concentration of 100 ng/ml or less. The cells in the 48-well plate were cultivated in an incubator keeping the humidity 100%, carbon dioxide 5% and air 95% at 37° C. for 24 hours to collect a supernatant of each well. The amount of IL-2, IL-4 and IL-5 released in the medium of each well were measured with the ELISA kit (Amersham K. K.) to be taken as an index of the cytokine production of the cells. TPA free group (-TPA) was used as a control.
# [6] = system: IgE production of mouse spleen lymphocytes (lipopolysaccharide, IL-4); test: Suppressive effect on antibody production of mouse spleen lymphocytes: IgE; type: cell-based, BALB/c (nu/nu) mice; conditions: LPS + IL-4, 10 days
# Method: (§4) Experiment 6 Suppressive Effect on Antibody Production of Mouse Spleen Lymphocytes 1. Experimental Method 1) Animals
# (§5) BALB/c (nu/nu) mice were bought from Japan SLC, Inc. (Shizuoka) and 7 weeks old-male mice were used.
# (§6) RPMI medium (Nissui Pharmaceutical Co., Ltd.) containing 10% fetal bovine serum (HyClone Lab.) inactivated at 56° C. for 30 minutes, penicillin (100 units/ml) and streptomycin (100 μg/ml) (GIBCO) was used for experiments.
# (§7) Each of the compounds was dissolved in dimethylsulfoxide (Nakaraitesk) at […] and diluted with the medium to adjust a final concentration to 0.1 μg/ml −10 μg/ml.
# 4) Mouse Spleen Lymphocytes
# A spleen of mouse was taken out and put in a cultivating schale which was filled with Hanks' solution. The spleen was crushed and the cells were pushed out from the organ and filtered through a metal mesh (200 mesh). After the collected cell suspension was washed by centrifugation with sterile Hanks' solution (Nissui Pharmaceutical Co., Ltd.), sterile distilled water was added. […]
# (§8) In 96-well cultivating plate (Sumitomo Bakelite Company Limited) mouse spleen lymphocytes were inoculated 2×10^5 cells per well. […] After the cultivation for 10 days, the amount of the antibody in a supernatant was quantified by ELISA method.
# 6) Quantification of the IgE Antibody
# A commercial mouse IgE EIA kit (Yamasa Shoyu Co., Ltd.) was used for the quantification of the IgE. […]
# [7] = system: IL-2 production of mouse T cell strain EL-4 (TPA); test: Suppressive effect on the cytokine production of mouse T cell strain EL-4: IL-2; type: cell-based; conditions: EL-4, TPA 10 ng/ml, 24 hours, ELISA
# Method: as §3
# [8] = system: IgG1 production of mouse spleen lymphocytes; test: Suppressive effect on antibody production of mouse spleen lymphocytes: IgG1; type: cell-based, BALB/c (nu/nu) mice; conditions: LPS + IL-4, 10 days
# Method: as §4, §5, §6, §7
# (§9) 4) Mouse Spleen Lymphocytes […]
# as §8
# (§10) 7) Quantification of the IgG1, IgG2a and IgM Antibodies
# (§11) In 96-well plate 50 μl of 10 μg/ml Goat Anti-Mouse Ig (IgM+G+A, H+ L) (Southern Biotechnology, Birmingham) was added and the plate was coated at 4° C. overnight. […] After washing three times with PBST, 100 μl of culture supernatant which was diluted with PBS or 100 μl of an antibody standard solution (Mouse IgG1 standard, Mouse IgG2a standard, Mouse IgM standard, BETHYL Laboratories) of a pre-determined concentration was added and incubated for 1 hour. […]
# [9] = system: IgG2a production of mouse spleen lymphocytes; test: Suppressive effect on antibody production of mouse spleen lymphocytes: IgG2a; type: cell-based, BALB/c (nu/nu) mice; conditions: LPS + IL-4, 10 days
# Method: as §4, §5, §6, §7, §9, §8, §10, §11
# [10] = system: IL-5 production of mouse T cell strain EL-4 (TPA); test: Suppressive effect on the cytokine production of mouse T cell strain EL-4: IL-5; type: cell-based; conditions: EL-4, TPA 10 ng/ml, 24 hours, ELISA
# Method: as §3
# [11] = system: IgM production of mouse spleen lymphocytes; test: Suppressive effect on antibody production of mouse spleen lymphocytes: IgM; type: cell-based, BALB/c (nu/nu) mice; conditions: LPS + IL-4, 10 days
# Method: as §4, §5, §6, §7, §9, §8, §10, §11
# [12] = system: BGG-specific IgE in a serum; test: Suppressive effect on the antibody production against bovine γ globulin (BGG), sandwich ELISA; type: in vivo, BALB/c mice; conditions: 100 mg/kg p.o. every day, serum after 21 days
# Method: Experiment 3 Suppressive Effect on the Antibody Production Against Bovine γ Globulin (BGG)
# On an immunizing day and 7 days after, 50 μg of BGG was subcutaneously inoculated to backs of BALB/c mice (male, 6-8 weeks old) for inducing an immune reaction. After the compound of the present invention was dissolved or suspended in N, N-dimethylacetoamide, the mixture was diluted with miglyol 812 neutral oil. A proper volume of the compound was orally administered (p.o.) to mice every day from the next day of the immunizing. A two hundredth weight to body weight of miglyol was administered to mice in a control group. After 21 days, blood was drawn from each mouse and a serum was separated. BGG-specific IgE in a serum was measured by the sandwich ELISA method using a BGG-coating plate. The suppressive rate of IgE production was calculated from the dilution rate of the serum which has the same absorption intensity as that of the control group for judging the effect of the compound of the present invention.
smiles,measurement,setting,value
CC(C)=CCNc1ccc(-c2cc(C)c(-c3ccc(N(C)C)cc3)cc2C)cc1F [Compound I-925],PCA Titer,[1]; 40 mg/kg orally for 10 days,1**
same,melting point,,100 to 102 °C
COc1cc(-c2ccc(O)cc2)c(OC)c(O)c1-c1ccc(OCC=C(Br)Br)c(O)c1 [Compound I-931],IC50,"[2]; Mus musculus, 72 h, read-out: EL-4 IC50",4.37 ng/mL
same,IC50,"[3]; Mus musculus, Splenocyte, 72 h",5.76 ng/mL
same,IC50,"[4]; Mus musculus, Splenocyte, 72 h, read-out: ConA IC50",2.93 ng/mL
same,melting point,,166 to 168 °C
O=C(Cc1ccc(Oc2ccc3cc(OCc4ccccc4)ccc3c2)cc1)Nc1ccccc1C(=O)O [No.36],PCA Titer,[1]; 10 mg/kg orally for 10 days,10.4
"CCOCC(O)COc1ccc(NC(=O)CC[S+](C)C)cc1.Cc1ccc(S(=O)(=O)[O-])cc1 (centres unmarked) [IPD-1151-T, Suplatast Tosilate, reference compound]",PCA Titer,[1]; 50 mg/kg orally for 10 days,9.8
COc1cc(-c2ccc(OCC=C(C)C)c(F)c2)c(OC)cc1-c1ccc(O)cc1 [Compound I-73],IC50 IL-4,[5],20 ng/mL
same,IC50 IgE,[6],0.044 ng/mL
same,IC50 IL-2,[7],500 ng/mL
same,IC50 IgG1,[8],2600 ng/mL
same,IC50 IgG2a,[9],4900 ng/mL
same,IC50 IL-5,[10],15 ng/mL
same,IC50 IgM,[11],4200 ng/mL
CC(C)=CCOc1ccc(-c2cc(C)c(-c3ccc(O)cc3)cc2C)cc1O [Compound I-525],EL-4 IC50,[2],5.0 ng/mL
same,LPS IC50,[3],1.11 ng/mL
same,ConA IC50,[4],0.76 ng/mL
same,Suppressive rate of antigen-specific IgE,[12],>95%
COc1cc(-c2ccc(NCC=C(C)C)c(F)c2)c(OC)cc1-c1ccc(N(C)C)cc1 [Compound I-484],PCA Titer,[1]; 40 mg/kg orally for 10 days,<0
same,EL-4 IC50,[2],91.4 ng/mL
same,LPS IC50,[3],32.2 ng/mL
same,ConA IC50,[4],14.7 ng/mL
